Reference: patent US20250195474A1, “Piezo Inhibition for Wound Healing” (priority 2022, published 2025)
No end group written: not given here.

Experiments:
[1] = tested on: existing scars; test: Treatment of existing scars during remodeling (scar rescue); assay type: in vivo, mouse
Description: While wound re-epithelialization is complete relatively quickly (around 2 weeks), wounds continue to heal beneath the surface for months to years in a process known as scar remodeling. (Foster et al., 2021; Gurtner et al., 2008) Remodeling is the longest and least well understood phase of wound repair but is likely critical to ultimate outcomes. We postulated that ADFs could continue to play a role in scarring during the remodeling process; if this were the case, we wondered whether ADF activity could be targeted during wound remodeling, via P1i in existing, actively remodeling scars, to ultimately reduce scarring and drive regeneration (FIG. 6A,C). Thus, we administered P1i to existing scars at POD 30 (early remodeling period), POD 75 (mid-remodeling), and POD 120 (late remodeling), then harvested tissue one month later at POD 60, POD 105, and […] respectively (FIG. 6A, C).

[2] = tested on: human fibroblasts; test: Human fibroblasts in 3D collagen gels with stretching; assay type: cell-based
Description: To further confirm that human cluster 3 represented a pro-regenerative ADF population we utilized our in vitro collagen gel system. We first, FACS sorted human fibroblasts based on expression of cluster 3 markers including ROBO2, CD29, and SFRP2 and seeded them into 3D collagen gels (FIG. 42B). […] In contrast, stretching with P1 inhibition kept the fibroblasts in a more adipocyte-like phenotype, with high expression of PPARg and low expression of Collagen Type I, similar to fibroblasts in an unstretched state (FIG. 42B).
To determine if P1i may activate […] Wnt pathways to maintain cluster 3 in an adipocyte-like phenotype, we applied Wnt5a recombinant protein to the in vitro collagen gel system (FIG. 42C). […] In summary, P1i treatment may revert fibroblasts towards the mechanically naïve fibroblast pro-regenerative fibroblast population through the activation of canonical Wnt pathways and thereby preventing the transition to pro-scarring phenotypes defined by CJUN and VCAM1 expression.

[3] = tested on: existing scars; test: CODEX spatial protein analysis of treated existing scars; assay type: in vivo, mouse
Description: To spatially phenotype the pig specimens, we used Co-Detection by Indexing (CODEX), a novel assay in which markers are labeled with oligonucleotide-conjugated antibodies and iteratively imaged between cyclic additions and washouts of dye-labeled oligonucleotides. A custom CODEX panel was designed to assess wound cells within the tissue see Table 1). In brief, primary antibodies were individually barcoded and validated using the commercial supplier's protocols. OCT for mouse or paraffin blocks for human xenograft (n=3 per group) were sectioned at 8 μm thickness onto coverslips for CODEX antibody staining. Antigens were retrieved by standard citrate-EDTA processing prior to addition of CODEX antibodies. Using a CODEX-integrated Keyence BZ-X instrument (Akoya Biosciences) image acquisition was then performed. Using software from Akoya Biosciences the raw images were process, with cell segmentation, and rendering.
The CODEX was visualized using Akoya Biosciences Multiplex Analysis Viewer (MAV) in ImageJ. The resulting .fcs files were then concatenated in FlowJo and imported into the Monocle3 and STvEA R packages for further analysis. After debris removal, the processed UMAP manifold was analyzed through Monocle3 with a post-manifold threshold of >10,000 cells per cluster. Analysis of the protein staining patterns was then used to assign cell types. The cell interactions were then inferred using STvEA for cell types at >2.5% of total abundance at k=20 nearest neighbors to quantify cell spatial interactions, and differential interaction maps were generated using graph scores.
To phenotype the spatial environment in the context of rescuing existing scars, CODEX was further employed to spatially define protein expression, cell populations, and associated cell-cell interactions (FIG. 10A; markers shown in Table 1 middle column, 39A). […]

[4] = tested on: human adipocytes; test: Human adipocyte-populated collagen I hydrogels with or without mechanical stretch; settings: 10% equibiaxial strain, 7 days
[5] = target: TRPC1 (Homo sapiens, UniProt P48995); settings: cited from earlier work
Sequence of TRPC1 (P48995 whole entry, species assumed): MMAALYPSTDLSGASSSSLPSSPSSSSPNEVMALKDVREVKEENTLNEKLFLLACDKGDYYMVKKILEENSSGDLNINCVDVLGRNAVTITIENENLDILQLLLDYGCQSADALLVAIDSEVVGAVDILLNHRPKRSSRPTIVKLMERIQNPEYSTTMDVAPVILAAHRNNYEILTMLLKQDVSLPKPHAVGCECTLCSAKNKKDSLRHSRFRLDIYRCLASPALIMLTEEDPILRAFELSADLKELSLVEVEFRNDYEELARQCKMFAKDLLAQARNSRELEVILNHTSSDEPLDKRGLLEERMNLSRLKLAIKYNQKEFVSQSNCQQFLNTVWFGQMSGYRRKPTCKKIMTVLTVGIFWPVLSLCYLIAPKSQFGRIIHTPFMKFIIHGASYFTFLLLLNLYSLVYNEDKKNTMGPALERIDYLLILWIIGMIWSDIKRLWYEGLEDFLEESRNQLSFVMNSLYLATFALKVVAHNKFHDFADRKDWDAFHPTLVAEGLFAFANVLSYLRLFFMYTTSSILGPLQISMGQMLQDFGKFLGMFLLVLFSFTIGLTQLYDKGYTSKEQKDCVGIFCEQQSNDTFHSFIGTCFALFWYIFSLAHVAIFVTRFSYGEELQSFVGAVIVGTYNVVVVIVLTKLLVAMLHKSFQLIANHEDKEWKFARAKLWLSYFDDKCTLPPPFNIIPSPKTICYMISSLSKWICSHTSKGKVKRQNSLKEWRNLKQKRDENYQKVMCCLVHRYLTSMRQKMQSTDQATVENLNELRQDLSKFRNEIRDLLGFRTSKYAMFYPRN

[6] = tested on: human xenograft fibroblasts; test: scRNA-seq of human xenograft wounds at POD 14; assay type: in vivo
Method: To assess if P1i acts on similar fibroblast clusters to cause regeneration, scRNA-seq analysis was performed on xenografts harvested at POD 14 post injury using a hybrid human-mouse xeno-transcriptome (FIG. 12A). Mouse cells were removed informatically and subsequent analysis focused exclusively on human cells (FIG. 41A). Partitional analysis identified 8 transcriptionally distinct clusters (FIG. 12B-C), corresponding to fibroblast and keratinocyte populations (FIG. 41A). Each cluster was present in all three treatment conditions but Cluster 3 was elevated in P1i treated wounds (FIG. 12D, FIG. 41B). […] This cluster was also enriched for pathways such as “skin morphogenesis”, as well as “neural crest differentiation” (FIG. 12G). By contrast, Cluster 0 was enriched for pathways related to adipocyte differentiation (FIG. 41C) and elevated expression of genes related to adipocyte-fibroblast transition (FIG. 41C) including expression of JUN a transcription factor associated with fibrosis (FIG. 41D).

[7] = tested on: mouse adipocytes; test: Mouse adipocyte-populated collagen I hydrogels with or without mechanical stretch; settings: 10% equibiaxial strain, 7 days; GsMTx4 500 nM, D-GsMTx4 500 nM, PF573228 10 uM, Verteporfin 300 nM
[8] = tested on: wound cells; test: scRNA-seq and CellChat analysis of POD 14 wounds
[9] = tested on: dorsal excisional wounds; test: Splinted dorsal excisional wounding with inhibitor injected at POD 0; assay type: in vivo, mouse
[10] = treated at POD 30, 75 or 120, harvested one month later

GsMTx4 (GCLEFWWKCNPNDDKCCRPKLKCSKLFKLCNFSF; ends and bridges not checked; cysteine pairing not given here; UniProt Q7YT39 47-80, looked up) [P1i]
organization of hair follicles ([1]; POD 105 and 120 vs POD 60): less organized than those at POD 60 | ADFs in late treated wounds ([1]; late treatment of existing scars): significantly reduced | ECM architecture in existing scars [1, 10]: full recovery of unwounded-like ECM architecture | hair follicles in existing scars [1, 10]: return of hair follicles | wound regeneration in existing scars [1, 10]: near-complete wound regeneration | phenotype of human fibroblasts (PPARg, Collagen Type 1) [2]: a more adipocyte like phenotype with high expression of PPARg and low expression of Collagen Type 1 | adipocyte cluster 2 interactions with epithelial cells ([3]; POD 60, 105 and 150): interacted more strongly with epithelial cells | expression of mechanical markers ([3]; POD 60, 105 and 150): PBS treated wounds showed higher expression of mechanical markers | interactions mediated by adipocyte clusters ([3]; vs PBS treated scars): enriched interactions mediated by adipocyte cluster 2 | stretch-induced hypertrophy of human adipocytes [4]: reversed | block of TRPC1 [5]: blocks | expression of TWIST2, WNT5A, CALU and SFRP2 ([6]; POD 14): highly expressed | representation of human cluster 3 ([6]; POD 14): elevated | CellChat cluster 0 activity with other clusters ([6]; POD 14, vs control wounds): downregulation | stretch-induced phenotypic switch (losing adiponectin, expressing Col1) [7]: abrogated | relative adipocytes and fibroblasts among sequenced wound cells ([8]; POD 14): relatively more adipocytes and fewer fibroblasts | CellChat interactions between cluster 5 fibroblasts and adipocytes ([8]; POD 14, vs control wounds): enhanced interactions between cluster 5 fibroblasts and adipocytes | CellChat signaling of adipocyte pathways (Leptin, Chemerin, PD-L1) ([8]; POD 14, vs control wounds): enhanced signaling of known adipocyte pathways | CellChat signaling of cluster 5 fibroblasts with other cell types ([8]; POD 14, vs control wounds): increase in signaling between cluster 5 fibroblasts and most other cell types | time to complete wound re-epithelialization ([9]; 30 uL of 0.2 mg/ml intradermal at wound edge, POD 0): did not significantly affect | Oil Red O staining and IF for cytokeratins 14/19 (regenerating appendages) ([9]; POD 14): presence of putative regenerating sebaceous glands/HF | mechanical properties (tensile testing, Young's modulus) ([9]; POD 14): reverted scars to more unwounded-like mechanical properties | adipocyte-derived fibroblasts (ADFs) in wounds ([9]; POD 14, FACS and histology): absent | structures consistent with unerupted hair follicles ([9]; POD 14, single injection at POD 0): numerous structures morphologically consistent with unerupted hair follicles | Col1 and α-SMA ([9]; POD 14 and POD 30): reduced | ECM density ([9]; POD 14 and POD 30): less dense | hair follicle formation ([9]; POD 30): allowed for hair follicle formation
